Data set [1] deals with Xanthomonas campestris pv. campestris. As to the kind of experiment: Xanthomonas campestris pv. campestris in vitro cell test (bacteria growth in liquid culture). Format: cell-based. The note with it: 20 ppm of tested compound; 24 h of incubation. On the procedure:
Example A: Xanthomonas Campestris pv. Campestris In Vitro Cell Test
Culture medium: LB broth medium (Luria Broth Miller) Sigma
Inoculum: bacteria suspension
Compounds to be tested were solubilized in DMSO and the solution used to prepare the required range of concentrations. The final concentration of DMSO used in the assay was ≤1%.
Inoculum was prepared from a pre-culture of bacteria grown in liquid medium and diluted to the desired optical density (OD).
Compounds were evaluated for their ability to inhibit bacteria growth in liquid culture assay. The compounds were added in the desired concentrations to culture medium containing the bacteria suspension. After 24 h of incubation, the efficacy of compounds was determined by spectrometric measurement of bacteria growth. Inhibition was determined by comparing the absorbance values in wells containing the compounds with the absorbance in control wells without compounds.

Data set [2] in a line: Log P by HPLC on reversed phase columns (EEC directive 79/831 Annex V.A8). In kind it is physicochemical. The note with it: for chromatographic logP: reversed phase HPLC columns. As for the experimental part:
In the above tables, measurement of Log P values was performed according to EEC directive 79/831 Annex V.A8 by HPLC (High Performance Liquid Chromatography) on reversed phase columns with the following methods: • ^[a]
If more than one Log P value is available within the same method, all the values are given and separated by “+”.
Calibration was done with straight-chain alkan2-ones (with 3 to 16 carbon atoms) with known Log P values (measurement of Log P values using retention times with linear interpolation between successive alkanones). Lambda-max-values were determined using UV-spectra from 200 nm to 400 nm and the peak values of the chromatographic signals.

Where [3] appears, read: method [a]: LC-UV, acidic range, 0.1% formic acid in water and acetonitrile as eluent.

This note sets out measurements from patent publication US11401254B2, “Substituted thiophenecarboxamides and analogues as antibacterials agents” (Bayer Aktiengesellschaft, priority 2018, dated 2022).

A word on the chromatographic logP: it is a lipophilicity value derived from retention on a column. Low readings indicate a more hydrophilic compound, high ones a more lipophilic compound. `CCOC(=O)CNC(=O)c1sc(Cl)c(Cl)c1C` [I.03, ethyl N-[(4,5-dichloro-3-methyl-2-thienyl)carbonyl]glycinate]: the “direct activity (inhibition of bacteria growth)” value in data set [1] is “no direct activity”. Also, the chromatographic logP in data set [2] (setting [3]) worked out at 2.9; in data set [2] (value given in preparation example, method variant not stated) it was 2.95.

With `Cc1c(C(=O)NC2(C(=O)O)CC2)sc(Cl)c1Cl` [I.51], the “direct activity (inhibition of bacteria growth)” value in data set [1] is on record as “no direct activity”. For the same compound, the LogP in data set [2] (setting [3]) was 2.26^[a].

Take `COC(=O)CNC(=O)c1sc(Cl)c(Cl)c1C` [I.31]: the “direct activity (inhibition of bacteria growth)” value in data set [1] was “no direct activity”. Moreover, the LogP in data set [2] (setting [3]) was 2.51^[a].

Consider `COC(=O)[C@@H](NC(=O)c1sc(Br)c(Br)c1C)C(C)C` [I.11], for which, in data set [1], the “direct activity (inhibition of bacteria growth)” value is given as “no direct activity”. Besides, the LogP in data set [2] (setting [3]) was 3.87^[a].

Turning to `Cc1c(C(=O)NC(C(=O)OC2CC2)C(C)C)sc(Br)c1Br` (stereo not shown) [I.56], in data set [1], the “direct activity (inhibition of bacteria growth)” value is “no direct activity”. Besides, the LogP in data set [2] (setting [3]) is 4.37^[a].

`Cc1c(C(=O)NC(C(=O)OCC(F)(F)F)C(C)C)sc(Br)c1Br` (stereo not shown) [I.59]: the “direct activity (inhibition of bacteria growth)” value in data set [1] is “no direct activity”. Moreover, the LogP in data set [2] (setting [3]) was 4.51^[a].

Consider `COC(=O)C(CCSC)NC(=O)c1sc(Cl)c(Cl)c1C` (stereo not shown) [I.35], for which, in data set [1], the “direct activity (inhibition of bacteria growth)” value was “no direct activity”. The LogP in data set [2] (setting [3]) is 3.55^[a].

Turning to `CCCCOC(=O)C(NC(=O)c1sc(Br)c(Br)c1C)C(C)C` (stereo not shown) [I.55], the “direct activity (inhibition of bacteria growth)” value in data set [1] is “no direct activity”. In addition, the LogP in data set [2] (setting [3]) was 5.25^[a].

As for `Cc1c(C(=O)NC(C(=O)OC(C)C)C(C)C)sc(Br)c1Br` (stereo not shown) [I.49], the “direct activity (inhibition of bacteria growth)” value in data set [1] is reported as “no direct activity”. In addition, in data set [2] (setting [3]), the LogP is 4.77^[a].

As for `CCOC(=O)C(Cc1ccc(O)cc1)NC(=O)c1sc(Br)c(Br)c1C` (stereo not shown) [I.23], the “direct activity (inhibition of bacteria growth)” value in data set [1] is recorded as “no direct activity”. For the same compound, the LogP in data set [2] (setting [3]) is 3.33^[a].

With `Cc1c(C(=O)NC(C(=O)OC2CSC2)C(C)C)sc(Br)c1Br` (stereo not shown) [I.17], in data set [1], the “direct activity (inhibition of bacteria growth)” value was “no direct activity”. The LogP in data set [2] (setting [3]) is 4.67^[a].

On to `Cc1c(C(=O)NCC(=O)OC(C)C)sc(Cl)c1Cl` [I.41], for which, in data set [1], the “direct activity (inhibition of bacteria growth)” value is listed as “no direct activity”. Besides, the LogP in data set [2] (setting [3]) is 3.29^[a].

For the compound `COC(=O)[C@@H](NC(=O)c1sc(Cl)c(Cl)c1C)C(C)C` [I.29], in data set [1], the “direct activity (inhibition of bacteria growth)” value was “no direct activity”. Moreover, in data set [2] (setting [3]), the LogP is 3.79^[a].

On to `Cc1c(C(=O)NC(C(=O)OC2CCC2)C(C)C)sc(Br)c1Br` (stereo not shown) [I.53], for which, in data set [1], the “direct activity (inhibition of bacteria growth)” value is given as “no direct activity”. Also, the LogP in data set [2] (setting [3]) was 4.98^[a].

With `CCOC(=O)C(Cc1ccccc1)NC(=O)c1sc(Cl)c(Cl)c1C` (stereo not shown) [I.38], the “direct activity (inhibition of bacteria growth)” value in data set [1] was “no direct activity”. In data set [2] (setting [3]), the LogP is 4.46^[a].

As to `CCOC(=O)C(CC(C)C)NC(=O)c1sc(Br)c(Br)c1C` (stereo not shown) [I.05], in data set [1], the “direct activity (inhibition of bacteria growth)” value was “no direct activity”. Also, the LogP in data set [2] (setting [3]) is 4.56^[a].

With `Cc1c(C(=O)NC(C(=O)OCc2ccccc2)C(C)C)sc(Br)c1Br` (stereo not shown) [I.57], the “direct activity (inhibition of bacteria growth)” value in data set [1] was “no direct activity”. Moreover, the LogP in data set [2] (setting [3]) is 5.03^[a].

On to `COC(=O)[C@@H](CCSC)NC(=O)c1sc(Cl)c(Cl)c1C` [I.36], for which the “direct activity (inhibition of bacteria growth)” value in data set [1] was “no direct activity”. Further, the LogP in data set [2] (setting [3]) is 3.55^[a].

On to `Cc1c(C(=O)NC(C(=O)OC2CS(=O)(=O)C2)C(C)C)sc(Br)c1Br` (stereo not shown) [I.18], for which the “direct activity (inhibition of bacteria growth)” value in data set [1] is given as “no direct activity”. Besides, in data set [2] (setting [3]), the LogP is 3.42^[a].

Consider `Cc1c(C(=O)NC(C(=O)OC2CCOC2)C(C)C)sc(Br)c1Br` (stereo not shown) [I.19], for which the “direct activity (inhibition of bacteria growth)” value in data set [1] was “no direct activity”. Further, the LogP in data set [2] (setting [3]) is 3.78^[a].

Regarding `CCOC(=O)C(Cc1ccc(O)cc1)NC(=O)c1sc(Cl)c(Cl)c1C` (stereo not shown) [I.39], in data set [1], the “direct activity (inhibition of bacteria growth)” value is recorded as “no direct activity”. Moreover, the LogP in data set [2] (setting [3]) was 3.29^[a].
